We go through four compounds from patent USRE37525E1, “Method for treating infectious respiratory diseases” (priority 1991, dated 2002).

Several values for one entry are separate records, joined by “and”; a condition that tells them apart may be missing. Identical values can stand only once. Entries after “also recorded” stand apart in the source; their conditions may differ. Like-named read-outs stand apart in the source and are kept apart here.

Series [1] relates to parainfluenza virus type 3 (PIV3). Type of series: in vivo, cotton rats (Sigmodon hispidus). An excerpt:
(§1) Inbred cotton rats (Sigmodon hispidus) were obtained from the colony of Virion Systems, Inc. Adult animals, free from specific rodent pathogens, were used. Animals were housed in large polycarbonate rat cages with a bedding of hardwood chips, and fed a diet of standard rat chow and water. Adult animals ranging from 1 to 8 months of age were used. No age-related differences in response to infection or treatment were seen.
(§2) Hydrocortisone acetate was selected as the prototypical corticosteroid for the anti-inflammatory studies. Cotton rats were infected (Day 0) by intranasal instillation of PIV3 (10^6 pfu/animal) or Ad-5 (10^9 pfu/animal). Animals were anesthetized with methoxyflurane, and the inoculating virus was delivered in a volume of 0.1 ml/100 gm body weight of the animal. On Day 3, animals were anesthetized with methoxyflurane, and hydrocortisone acetate (50 mg/ml) was instilled intranasally in a volume of 0.1 ml/100 gm body weight. The same treatment with hydrocortisone acetate was repeated once per day on Days 4 and 5. For purposes of comparison, control animals were infected concurrently on Day 0, but received no treatment on Days 3, 4, or 5. On Day 6, all animals were euthanized by carbon dioxide intoxication.
These included dexamethasone acetate (8 mg/ml) and triamcinolone acetonide (40 mg/ml). Of course, other corticosteroids or anti-inflammatory agents known to one of ordinary skill in the art could also be used.
(§3) Lungs were removed from the thorax and inflated through the trachea with neutral buffered formalin. Histologic sections were made by following standard procedures and stained with hematoxylin and eosin (H&E).
(§4) Topical administration was accomplished by anesthetizing the animals, holding them in a vertical posture, and instilling a solution containing corticosteroid onto the nares. A total volume of 0.1 ml/100 gm body weight was used. […] However, for human administration it is desirable to use a small particle aerosol delivered by a device that could be triggered by inhalation or used synchronously with the inhalation phase of ventilation for patients on a ventilator. Such a device could deliver aerosol from powder (spinhaler) or liquid. Since many patients, especially young infants and debilitated adults, may have diminished respiratory inhalation vigor, it is important to synchronize aerosol generation with inhalation. This could be accomplished by having inhalation trigger the aerosol delivery to the airway (nasal prongs, oral tube, etc.). The trigger mechanism could include negative pressure from inhalation, chest movement, or electrical triggering synchronized with diaphragmatic contraction. Electrical leads used to monitor respirations could be used to synchronize aerosol generation to be triggered at the first initiation of diaphragmatic contraction and respiration. Any form of aerosol generator is suitable if aerosol delivery is synchronized with inhalation and appropriate particle size is consistently generated.
(§5) Therapeutic efficacy is determined by comparing two parameters in treated versus control animals: (1) the percentage of alveoli on a single H&E-stained coronal section of lungs containing interstitial and/or intraalveolar pathology; and (2) the percentage of bronchioles, on the same section of lungs, affected by peribronchiolar lymphocytic infiltration.
Triamcinolone acetonide was selected as the prototypical corticosteroid for the combined anti-infective and anti-inflammatory studies. […] Therefore, the use of triamcinolone acetonide is merely by example of a general property of corticosteroids. Cotton rats were infected (Day 0) by intranasal instillation of PIV3 (10^6 pfu/animal) or RSV (10^5 pfu/animal). Animals were anesthetized with methoxyflurane, and the inoculating virus was delivered in a volume of 0.1 ml/100 gm body weight of the animal. […]

In series [2] the test system is respiratory syncytial virus (RSV). The series is classed as in vivo. The note with it: for % Bronchioles: group mean, Table 8, triamcinolone acetonide 4 mg/kg, ribavirin 20 mg/kg, topical Days 3, 4, 5, Day 6; for effect on pulmonary pathology (in words): topical treatment Days 3, 4, 5. The procedure: (§6) Triamcinolone acetonide was selected as the prototypical corticosteroid for the combined anti-infective and anti-inflammatory studies. […] Cotton rats were infected (Day 0) by intranasal instillation of PIV3 (10^6 pfu/animal) or RSV (10^5 pfu/animal). Animals were anesthetized with methoxyflurane, and the inoculating virus was delivered in a volume of 0.1 ml/100 gm body weight of the animal. On Day 3, animals were anesthetized with methoxyflurane, and treated by intranasal instillation of anti-infective agent or a combination of anti-infective agent and corticosteroid, in a volume of 0.1 ml/100 gm body weight. The same treatment was repeated once per day on Days 4 and 5. For purposes of comparison, control animals were infected concurrently on Day 0, but received no treatment on Days 3, 4, or 5. On Day 6, the time of maximum pulmonary pathology in infected, untreated animals, all animals were euthanized by carbon dioxide intoxication.
(§7) Three experiments were performed using combined therapy: (1) anti-PIV3 antibody (100 mg/kg) and triamcinolone acetonide (4 mg/kg) were used to treat PIV3 infection; (2) anti-RSV antibody (25 mg/kg) and triamcinolone acetonide (4 mg/kg) were used to treat RSV infection; (3) ribavirin (20 mg/kg) and triamcinolone acetonide (4 mg/kg) were used to treat RSV infection. All agents were administered topically as described above in “Drug Testing”.
Histopathology studies. After animals were sacrificed by carbon dioxide intoxication, the chest cavity was opened, and the heart and lungs removed intact. The trachea was cannulated with a blunt needle, the lungs inflated with 10% neutral buffered formalin to their normal volume, and the trachea tied with a suture. Coronal sections of the lungs were cut at a thickness of 4 microns, and stained with hematoxylin and eosin.
Standard published pathologic criteria for the identification and scoring of bronchiolitis and interstitial pneumonia were used (Porter, 1991 J. Virol. 65:103-111). Briefly, bronchiolitis is the accumulation of inflammatory cells, mostly or exclusively lymphocytes, in and around bronchioles. There may be accompanying damage to the epithelial cells, including loss of cilia or cell death. Interstitial pneumonia is thickening of the alveolar walls, usually accompanied by infiltration of inflammatory cells into the alveolar septae. Bronchiolitis was quantitated by examining each bronchiole within the lung section (generally 40-70 bronchioles) and scoring for the presence or absence of lymphocytic infiltration. The percentage of affected bronchioles was then calculated. Interstitial pneumonia was quantitated by estimating the percentage of affected alveolar tissue in the lung section. A minimum of four animals were examined for each time point. Arithmetic means of pathology scores were calculated, and differences between treatment groups evaluated by the Student t-test of summary data. In each experiment, uninfected animals served as sentinels to rule out the presence of adventitious agents.

Series [3] has the same test system. The series is classed as in vivo. The note with it: topical treatment Days 3, 4, 5. The procedure: as §6, §7
(§8) Cotton rats were challenged to induce infection in the following manner. The frozen virus (usually at a concentration of 10^5 pfu/ml) was thawed and then immediately instilled (0.05 ml/nostril) into anesthetized cotton rats. […] Lungs were removed from the animal, homogenized in tissue culture fluid, and cultured on HEp2 monolayers. The amount of virus was then quantified.
(§9) A single pool of purified human IgG, with known neutralizing antibody titer, was used with each virus throughout the experiments, to minimize experimental variability. […] Once determined, this dose was used in all subsequent experiments.
(§10) Titrations of virus in pulmonary tissues. Animals were sacrificed by carbon dioxide intoxication. After the thoracic wall was removed aseptically, the lungs were dissected from the heart, and homogenized in a TenBroeck tissue grinder in 10 parts (v:w) of Hanks, balanced salt solution, modified for stabilizing virus by the addition of 0.218 M sucrose, 4.4 mM glutamate, 3.8 mM KH2PO4 and 7.2 mM K2HPO4. […] After four days incubation at 37° C. under methylcellulose overlay, the cells were stained with crystal violet in glutaraldehyde solution, and the plaques counted. Viral titers were expressed as a geometric mean, plus or minus the standard error, for all animals (a minimum of four) at a given time point. […]

Series [4] concerns parainfluenza virus type 3 (PIV3). Type of series: in vivo. Conditions: topical treatment Days 3, 4, 5. On the procedure:
as §6, §7, §8, §9, §10

The next series relates to adenovirus type 5 (Ad-5). The series is described as follows: Pulmonary pathology (histology) in Ad-5-infected cotton rats. The series is classed as in vivo.
Text: as §1, §2, §3, §4, §5

Where [5] appears, read: group mean, Experiment 5, dexamethasone acetate 8 mg/ml or triamcinolone acetonide 40 mg/ml intranasal Days 3-5, Day 6.
The mark [6] stands for this setting: group mean, Table 6, triamcinolone acetonide 4 mg/kg, anti-PIV3 IgG 100 mg/kg, topical Days 3, 4, 5, Day 6.
[7] abbreviates: individual animals (Exps. 3, 4).
[8] abbreviates: range over experiments, treated vs control.
Setting [9] is: mean, Exps. 1, 2, 6 and 7 combined.

Take `CC(=O)OCC(=O)[C@@]1(O)[C@H](C)C[C@H]2[C@@H]3CCC4=CC(=O)C=C[C@]4(C)[C@@]3(F)[C@@H](O)C[C@@]21C` [Dexamethasone, dexamethasone acetate]: in series [1] (Experiment 5), the “reduction of alveolar inflammation compared to control values” is reported as 28% and the “reduction of bronchiolar inflammation compared to control values” is listed as 75%. Also, in series [1] (setting [5]), the “% Alveoli” value was 50% and the “% Bronchioles” value was 21%. Also, the “% Bronchioles” value in series [1] (individual animals, Experiment 5) was 29% and 21% and 14%.

Regarding `NC(=O)c1ncn([C@@H]2O[C@H](CO)[C@@H](O)[C@H]2O)n1` [Ribavirin, 1-beta-D-ribofuranosyl-1,2,4,-triazole-3-carboxamide], in series [2], the “% Bronchioles” value is 48 (N.S.) %. The “therapeutic effectiveness against RSV infection (in words)” value in series [2] (ribavirin 20 mg/kg topical, cotton rat) is “minimally effective”. Further, the “effect on pulmonary pathology (in words)” value is “nor affected pulmonary pathology” in series [2] and “no effect on pulmonary pathology” in series [2] (listed as ribavirin). Moreover, the “effect on viral titers / viral shedding (in words)” value was “neither effected a significant reduction in pulmonary RSV titers” in series [3] and “did not reduce viral titers” in series [3] (listed as ribavirin).

In the case of `CC1(C)O[C@@H]2C[C@H]3[C@@H]4CCC5=CC(=O)C=C[C@]5(C)[C@@]4(F)[C@@H](O)C[C@]3(C)[C@]2(C(=O)CO)O1` [Triamcinolone, triamcinolone acetonide], in series [2], the “% Bronchioles” value is listed as 0 (p < 0.001) % and the “effect on pulmonary pathology (in words)” value is “dramatically reduced; also recorded: reduced pulmonary pathology”. In series [3], the “effect on viral titers / viral shedding (in words)” value is “prolonged and increased viral shedding”. In series [4], the “effect on viral titers / viral shedding (in words)” value was “increased and prolonged viral shedding; also recorded: prolonged and increased viral shedding”. Moreover, in series [1] (Experiment 5), the “reduction of alveolar inflammation compared to control values” is recorded as 80% and the “reduction of bronchiolar inflammation compared to control values” is given as 89%. In addition, in series [1] (setting [5]), the “% Alveoli” value was 24% and 24 (p < 0.01) %; the “% Bronchioles” value is 9% and 9 (p < 0.001) %. Further, in series [1] (setting [6]), the “% Alveoli” value is 10 (p < 0.05) % and 10%; the “% Bronchioles” value was 6 (p < 0.001) % and 6%.

As to `CC(=O)OCC(=O)[C@@]1(O)CC[C@H]2[C@@H]3CCC4=CC(=O)CC[C@]4(C)[C@H]3[C@@H](O)C[C@@]21C` [hydrocortisone acetate, Hydrocortisone acetate], the “% Alveoli” value with adenovirus type 5 (Ad-5) (setting [7]) was 10% (2×) and 5% and 9% and 50% and 40% (2×) and 20%; in series [1] (setting [9]), 24%. Besides, the “% Bronchioles” value is 18% and 16% and 21% and 8% and 26% and 37% and 42% and 50% in the series on adenovirus type 5 (Ad-5) (setting [7]); 9% and 15% in series [1] (group mean per experiment (Exps. 1, 2, 6, 7), hydrocortisone acetate 50 mg/ml, 0.1 ml/100 gm intranasal Days 3, 4, 5, histology Day 6); 15% in series [1] (setting [9]). The entries for the “net reduction in disease, alveolar inflammation” value (in the series with adenovirus type 5 (Ad-5) (setting [8]); in series [1] (setting [8])) were 46-79% and 27-56%, respectively. Moreover, the “net reduction in disease, bronchiolar inflammation” value in the series with adenovirus type 5 (Ad-5) (setting [8]) is listed as 57-77%; in series [1] (setting [8]), 77-85%. The “exacerbated disease in treated animals” value (in the series with adenovirus type 5 (Ad-5) (topical hydrocortisone acetate); in series [1] (topical hydrocortisone acetate)) was “no evidence of exacerbated disease” each time.
